According to patent publication US6737383B1, “Herbicidal oxadiazolidines” (priority 1999, dated 2004):

Legend:
surinam grass = assay: Test B pre/postemergence surinam grass; type: in vivo, Brachiaria decumbens
How it was run: (§1)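 Test chemicals in a non-phytotoxic solvent mixture with surfactant were sprayed preemergence onto planted seeds and postemergence onto plants 2 to 18 cm tall (1- to 4-leaf stage). After twelve to sixteen days in a greenhouse, injury was visually rated against untreated controls from 0 (no effect) to 10 (complete control).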

crabgrass = assay: Test B pre/postemergence crabgrass; type: in vivo, Digitaria sanguinalis
How it was run: as §1

pigweed = assay: Test B pre/postemergence pigweed; type: in vivo, Amaranthus retroflexus
How it was run: as §1

rape = assay: Test B pre/postemergence rape; type: in vivo, Brassica napus
How it was run: as §1

bedstraw = assay: Test B pre/postemergence bedstraw; type: in vivo, Galium aparine
How it was run: as §1

velvetleaf = assay: Test B pre/postemergence velvetleaf; type: in vivo, Abutilon theophrasti
How it was run: as §1

sugar beet = assay: Test B pre/postemergence sugar beet; type: in vivo, Beta vulgaris
How it was run: as §1

duck salad = assay: Test B flood test duck salad; type: in vivo, Heteranthera limosa
How it was run: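 Each value is a visual injury score relative to controls, with 10 meaning complete control and 0 no effect. Evaluation took place twelve to sixteen days after the 2-leaf-stage plants were treated and kept in the greenhouse.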

corn = assay: Test B pre/postemergence corn; type: in vivo, Zea mays
How it was run: as §1

soybean = assay: Test B pre/postemergence soybean; type: in vivo, Glycine max
How it was run: as §1

morningglory = assay: Test B pre/postemergence morningglory; type: in vivo, Ipomoea hederacea
How it was run: as §1

giant foxtail = assay: Test B pre/postemergence giant foxtail; type: in vivo, Setaria faberii
How it was run: as §1

cocklebur = assay: Test B pre/postemergence cocklebur; type: in vivo, Xanthium strumarium
How it was run: as §1

wheat = assay: Test B pre/postemergence wheat; type: in vivo, Triticum aestivum
How it was run: as §1

purple nutsedge = assay: Test B pre/postemergence purple nutsedge; type: in vivo, Cyperus rotundus
How it was run: as §1

[1] = Preemergence, Rate 62 g/ha, scale of 0 to 10 where 0 is no effect and 10 is complete control
[2] = Preemergence, Rate 125 g/ha, 0 is no effect, 10 is complete control
[3] = Preemergence, Rate 250 g/ha, scale 0 to 10, 0 is no effect, 10 is complete control
[4] = Preemergence, Rate 500 g/ha, scale 0 to 10 (0 no effect, 10 complete control)
[5] = Rate 62 g/ha, Postemergence, scale of 0 to 10 where 0 is no effect and 10 is complete control
[6] = Rate 125 g/ha, Postemergence, scale 0 to 10
[7] = Rate 500 g/ha, Postemergence, scale 0 to 10

SMILES: Cc1nc(C)c(Cn2c(=O)on(C(=O)N(c3ccc(F)cc3)C(C)C)c2=O)s1 [Compound 192]
- B. signalgrass plant response rating (surinam grass; [1]): 0
- B. signalgrass plant response rating (0 to 10 scale) (surinam grass; [2]): 0
- B. signalgrass plant response rating (surinam grass; [3]): 6
- B. signalgrass plant response rating (surinam grass; [4]): 6
- B. signalgrass plant response rating (surinam grass; [5]): 0
- B. signalgrass plant response rating (surinam grass; Rate 125 g/ha, Postemergence, scale 0 (no effect) to 10 (complete control)): 0
- Plant response rating, B. signalgrass (surinam grass; Rate 250 g/ha, Postemergence, scale 0 to 10, 0 is no effect, 10 is complete control): 0
- B. signalgrass plant response rating (surinam grass; Rate 500 g/ha, Postemergence, scale 0 to 10, 0 no effect, 10 complete control): 2
- Crabgrass plant response rating (crabgrass; [1]): 2
- Crabgrass plant response rating (0 to 10 scale) (crabgrass; [2]): 6
- Crabgrass plant response rating (crabgrass; [3]): 7
- Crabgrass plant response rating (crabgrass; [4]): 9
- Crabgrass plant response rating (crabgrass; [5]): 1
- Crabgrass plant response rating (crabgrass; [6]): 1
- Plant response rating (0 to 10; 0 is no effect, 10 is complete control), Crabgrass (crabgrass; Rate 250 g/ha, Postemergence): 1
- Crabgrass plant response rating (crabgrass; [7]): 2
- Redroot pigweed plant response rating (pigweed; [1]): 0
- Redroot pigweed plant response rating (0 to 10 scale) (pigweed; [2]): 2
- Redroot pigweed plant response rating (pigweed; [3]): 5
- Redroot pigweed plant response rating (pigweed; [4]): 9
- Redroot pigweed plant response rating (pigweed; [5]): 0
- Redroot pigweed plant response rating (pigweed; [6]): 1
- Plant response rating (0 to 10; 0 is no effect, 10 is complete control), Redroot pigweed (pigweed; Rate 250 g/ha, Postemergence): 3
- Redroot pigweed plant response rating (pigweed; [7]): 7
- Rape plant response rating (rape; [1]): 0
- Rape plant response rating (0 to 10 scale) (rape; [2]): 0
- Rape plant response rating (rape; [3]): 4
- Rape plant response rating (rape; [4]): 9
- Rape plant response rating (rape; [5]): 0
- Rape plant response rating (rape; [6]): 0
- Plant response rating (0 to 10; 0 is no effect, 10 is complete control), Rape (rape; Rate 250 g/ha, Postemergence): 2
- Rape plant response rating (rape; [7]): 2
- Bedstraw plant response rating (bedstraw; [1]): 0
- Bedstraw plant response rating (0 to 10 scale) (bedstraw; [2]): 0
- Bedstraw plant response rating (bedstraw; [3]): 0
- Bedstraw plant response rating (bedstraw; [4]): 0
- Bedstraw plant response rating (bedstraw; [5]): 0
- Bedstraw plant response rating (bedstraw; [6]): 0
- Plant response rating (0 to 10; 0 is no effect, 10 is complete control), Bedstraw (bedstraw; Rate 250 g/ha, Postemergence): 0
- Bedstraw plant response rating (bedstraw; [7]): 0
- Velvetleaf plant response rating (velvetleaf; [1]): 0
- Velvetleaf plant response rating (velvetleaf; [3]): 5
- Velvetleaf plant response rating (velvetleaf; [4]): 6
- Velvetleaf plant response rating (velvetleaf; [5]): 0
- Velvetleaf plant response rating (velvetleaf; [6]): 2
- Plant response rating (0 to 10; 0 is no effect, 10 is complete control), Velvetleaf (velvetleaf; Rate 250 g/ha, Postemergence): 3
- Sugarbeets plant response rating (sugar beet; [1]): 0
- Sugarbeets plant response rating (0 to 10 scale) (sugar beet; [2]): 0
- Sugarbeets plant response rating (sugar beet; [3]): 0
- Sugarbeets plant response rating (sugar beet; [4]): 8
- Sugarbeets plant response rating (sugar beet; [5]): 0
- Sugarbeets plant response rating (sugar beet; [6]): 0
- Plant response rating (0 to 10; 0 is no effect, 10 is complete control), Sugarbeets (sugar beet; Rate 250 g/ha, Postemergence): 0
- Sugarbeets plant response rating (sugar beet; [7]): 5
- Ducksalad plant response rating (duck salad; Rate 62 g/ha, headed Pre-emergence (flood test species), scale 0 to 10 (0 no effect, 10 complete control)): 0
- Ducksalad plant response rating (duck salad; Rate 125 g/ha, Pre-emergence, flood test species, scale 0 to 10 where 0 is no effect and 10 is complete control): 0
- Ducksalad plant response rating (duck salad; Rate 250 g/ha, Pre-emergence, flood-test species, scale 0 to 10, 0 is no effect, 10 is complete control): 0
- Plant response rating, Ducksalad (duck salad; Rate 500 g/ha, headed Pre-emergence (flood test species), scale 0 to 10 (0 no effect, 10 complete control)): 0
- Corn plant response rating (corn; [1]): 0
- Corn plant response rating (0 to 10 scale) (corn; [2]): 0
- Corn plant response rating (corn; [3]): 0
- Corn plant response rating (corn; [4]): 4
- Corn plant response rating (corn; [5]): 0
- Corn plant response rating (corn; [6]): 0
- Plant response rating (0 to 10; 0 is no effect, 10 is complete control), Corn (corn; Rate 250 g/ha, Postemergence): 0
- Corn plant response rating (corn; [7]): 0
- Soybean plant response rating (soybean; [1]): 0
- Soybean plant response rating (0 to 10 scale) (soybean; [2]): 0
- Soybean plant response rating (soybean; [3]): 2
- Soybean plant response rating (soybean; [4]): 2
- Soybean plant response rating (soybean; [5]): 3
- Soybean plant response rating (soybean; [6]): 3
- Plant response rating (0 to 10; 0 is no effect, 10 is complete control), Soybean (soybean; Rate 250 g/ha, Postemergence): 3
- Soybean plant response rating (soybean; [7]): 3
- Morningglory plant response rating (morningglory; [1]): 0
- Morningglory plant response rating (0 to 10 scale) (morningglory; [2]): 0
- Morningglory plant response rating (morningglory; [3]): 0
- Morningglory plant response rating (morningglory; [4]): 3
- Morningglory plant response rating (morningglory; [5]): 1
- Morningglory plant response rating (morningglory; [6]): 3
- Plant response rating (0 to 10; 0 is no effect, 10 is complete control), Morningglory (morningglory; Rate 250 g/ha, Postemergence): 6
- Morningglory plant response rating (morningglory; [7]): 6
- Giant foxtail plant response rating (giant foxtail; [1]): 8
- Giant foxtail plant response rating (0 to 10 scale) (giant foxtail; [2]): 9
- Giant foxtail plant response rating (giant foxtail; [3]): 10
- Giant foxtail plant response rating (giant foxtail; [4]): 10
- Giant foxtail plant response rating (giant foxtail; [5]): 0
- Giant foxtail plant response rating (giant foxtail; [6]): 0
- Plant response rating (0 to 10; 0 is no effect, 10 is complete control), Giant foxtail (giant foxtail; Rate 250 g/ha, Postemergence): 0
- Giant foxtail plant response rating (giant foxtail; [7]): 1
- Cocklebur plant response rating (cocklebur; [1]): 0
- Cocklebur plant response rating (0 to 10 scale) (cocklebur; [2]): 0
- Cocklebur plant response rating (cocklebur; [3]): 0
- Cocklebur plant response rating (cocklebur; [4]): 0
- Cocklebur plant response rating (cocklebur; [5]): 0
- Cocklebur plant response rating (cocklebur; [6]): 1
- Plant response rating (0 to 10; 0 is no effect, 10 is complete control), Cocklebur (cocklebur; Rate 250 g/ha, Postemergence): 2
- Cocklebur plant response rating (cocklebur; [7]): 5
- Wheat plant response rating (wheat; [1]): 0
- Wheat plant response rating (wheat; [3]): 0
- Wheat plant response rating (wheat; [4]): 0
- Wheat plant response rating (wheat; [5]): 0
- Wheat plant response rating (wheat; [6]): 0
- Plant response rating (0 to 10; 0 is no effect, 10 is complete control), Wheat (wheat; Rate 250 g/ha, Postemergence): 0
- Nutsedge plant response rating (purple nutsedge; [1]): 0
- Nutsedge plant response rating (0 to 10 scale) (purple nutsedge; [2]): 0
- Nutsedge plant response rating (purple nutsedge; [5]): 0
- Nutsedge plant response rating (purple nutsedge; [6]): 0
- Plant response rating (0 to 10; 0 is no effect, 10 is complete control), Nutsedge (purple nutsedge; Rate 250 g/ha, Postemergence): 0
- Nutsedge plant response rating (purple nutsedge; [7]): 0
